Legend:
OR11A1 = OR11A1 (Homo sapiens, UniProt Q9GZK7); assay: Cell-based OR activation assay (cAMP accumulation); parameters: expressed in transfected cells; host or cells: HEK293T expressing human Golf; details: FIG. 5; OR-dependent accumulation of cAMP
Olfr1487 = assay: Cell-based OR activation assay (cAMP accumulation); parameters: species or system mouse; details: FIG. 5; OR-dependent accumulation of cAMP
Olfr339 = assay: Cell-based OR activation assay (cAMP accumulation); parameters: species or system mouse; details: FIG. 5; OR-dependent accumulation of cAMP
Olfr1322 = assay: Cell-based OR activation assay (cAMP accumulation); parameters: species or system mouse; details: FIG. 5; OR-dependent accumulation of cAMP
Olfr96 = assay: Cell-based OR activation assay (cAMP accumulation); parameters: species or system mouse; details: FIG. 5; OR-dependent accumulation of cAMP
OR2W1 [1] = target: T1, OR2W1 (Homo sapiens, UniProt Q9Y3N9, M81V); assay: Cell-based OR activation assay (cAMP accumulation); parameters: expressed in transfected cells; host or cells: HEK293T expressing human Golf; details: FIG. 7 and 8; OR-dependent accumulation of cAMP
T1 sequence (Q9Y3N9 1-320 M81V): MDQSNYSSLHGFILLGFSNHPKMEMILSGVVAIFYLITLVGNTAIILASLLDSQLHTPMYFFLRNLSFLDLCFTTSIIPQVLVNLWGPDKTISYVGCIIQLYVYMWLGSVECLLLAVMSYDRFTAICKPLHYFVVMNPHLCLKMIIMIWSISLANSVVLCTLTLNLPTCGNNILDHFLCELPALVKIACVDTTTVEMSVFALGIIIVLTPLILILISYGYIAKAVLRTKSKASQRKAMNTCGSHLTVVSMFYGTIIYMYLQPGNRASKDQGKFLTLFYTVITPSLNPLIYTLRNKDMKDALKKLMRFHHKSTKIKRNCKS
Excerpt: (§1) The detection method pertains to OR-dependent accumulation of cAMP in said cells, as a result of OR activation by transpirol.
(§2) The detection method pertains to OR-dependent accumulation of cAMP in said cells, as a result of OR activation by 3-methyl-2-hexenoic acid.
(§3) In a further embodiment, to complete the deorphanization process, the candidate OR genes are further expressed in vitro for confirmation of activity against the compounds used to isolate the olfactory sensory neurons and other structurally-related compounds of interest. […]
(§4) In the second method, a panel of odorant receptors comprising the 400 putatively functional human receptor repertoire were transfected into a cultured human HEK293T cell line described in WO2014/210585 expressing Human olfactory G-protein alpha subunit (Golf—SEQ. ID No. 49) and coupled to a cyclicAMP reporter. Said panel of in vitro odorant receptors were exposed to MCSs and the level of cAMP signal was measured for each receptor. […]

Olfr263 [2] = assay: Cell-based OR activation assay (cAMP accumulation); parameters: species or system mouse; details: FIG. 7 and 8; OR-dependent accumulation of cAMP
Excerpt: as §1, §2
(§5) In a further embodiment, to complete the deorphanization process, the candidate OR genes are further expressed in vitro for confirmation of activity against the compounds used to isolate the olfactory sensory neurons and other structurally-related compounds of interest. The mouse receptors identified from isolated olfactory neurons that respond to geonol, DMTS, 1-octen-3-ol, butyric acid, 3-methyl-2-hexenoic acid, 3-hydroxy-3-methyl-hexanoic acid or transpirol are modified at their N-terminus with short polypeptide sequences (e.g., FLAG® (SEQ ID NO: 48), Rho (SEQ ID NO: 50; 20 first amino acids of the bovine rhodopsin receptor), and/or Lucy (SEQ ID NO: 52; cleavable leucine-rich signal peptide sequence) tags), transiently expressed in HEK 293T cells, and stimulated separately with geonol, DMTS, 1-octen-3-ol, butyric acid, 3-methyl-2-hexenoic acid, 3-hydroxy-3-methyl-hexanoic acid or transpirol to confirm their identity as bona fide geonol, dimethyl trisulfide (DMTS), 1-octen-3-ol, butyric acid, 3-methyl-2-hexenoic acid, 3-hydroxy-3-methyl-hexanoic acid or transpirol receptors. […]

Olfr46 = assay: Cell-based OR activation assay (cAMP accumulation); parameters: species or system mouse; details: FIG. 7; OR-dependent accumulation of cAMP
Excerpt: as §1
as §5, with “receptors. In a further embodiment, an RTP1 gene can also be expressed in the cell lines whether through activation of the endogenous RTP1 gene or through transformation.” for “receptors.”

human sensory panel = assay: Sensory evaluation of geonol earthy/moss odor in binary mixtures with antagonists; assay type: in vivo; details: percentage of geonol malodor (earthy/moss odor) remaining in binary iso-intense mixture vs REF; * = statistically different from geonol alone
Excerpt: Sensory Evaluation: Five 16 oz glass jars containing either REF (geonol only), geonol only control, antagonist only, mixture of geonol and isointense antagonist, or mixture of geonol and low intensity antagonist were presented to the panelists (last four samples were randomized across panelists). The panelists were asked to familiarize themselves with the earthy/moss odor quality from the REF jar first, then rate the pleasantness, earthy/moss odor intensity and overall odor intensity of the next four samples on a 0-10 linear scale. The inter-stimulus interval between the samples was two minutes to avoid adaptation.

OR51I2 = target: T2, OR51I2 (Homo sapiens, UniProt Q9H344); assay: 3-methyl-2-hexenoic acid concentration-dependent activation of OR51I2: OR-dependent cAMP accumulation in a cell-based assay (functional dose-response); details: agonist, human OR51I2 (SEQ ID NO: 20), HEK293T cells expressing Golf, FIG. 8
T2 construct: expressed in transfected cells; host or cells: HEK293T
T2 sequence (Q9H344 whole entry): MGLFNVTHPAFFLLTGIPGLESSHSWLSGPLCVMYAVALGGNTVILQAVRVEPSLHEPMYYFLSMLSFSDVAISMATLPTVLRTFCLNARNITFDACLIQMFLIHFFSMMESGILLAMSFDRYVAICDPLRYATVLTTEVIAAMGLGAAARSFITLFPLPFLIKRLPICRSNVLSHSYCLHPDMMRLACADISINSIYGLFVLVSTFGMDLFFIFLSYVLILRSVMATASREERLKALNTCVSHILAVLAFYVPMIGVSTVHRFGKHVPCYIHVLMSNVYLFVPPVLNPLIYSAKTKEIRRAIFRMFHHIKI
Excerpt: as §2, §3, §4

OR5112 = target: T3, OR5112 (Homo sapiens, UniProt Q9H344); assay: Cell-based OR activation assay (cAMP accumulation); details: FIG. 8; OR-dependent accumulation of cAMP
T3 construct: expressed in transfected cells; host or cells: HEK293T expressing human Golf
T3 sequence (Q9H344 whole entry): as above
Excerpt: as §2, §3, §4

Olfr641 [3] = assay: Cell-based OR activation assay (cAMP accumulation); parameters: species or system mouse; details: FIG. 8; OR-dependent accumulation of cAMP
Excerpt: as §2
as §5, with “receptors. In a further embodiment, an RTP1 gene can also be expressed in the cell lines whether through activation of the endogenous RTP1 gene or through transformation.” for “receptors.”

Olfr263 [4] = target: Olfr263 (Mus musculus, UniProt Q7TQT8); assay: Concentration-dependent activation of Olfr263: OR-dependent cAMP accumulation in a cell-based assay (functional dose-response); details: agonist 3-methyl-2-hexenoic acid, mouse Olfr263 (SEQ ID NO: 22), N-terminal FLAG/Rho/Lucy tags, HEK 293T cells, Gαolf, FIG. 8
Chain of Olfr263 (Mus musculus, UniProt Q7TQT8) (Q7TQT8 1-317): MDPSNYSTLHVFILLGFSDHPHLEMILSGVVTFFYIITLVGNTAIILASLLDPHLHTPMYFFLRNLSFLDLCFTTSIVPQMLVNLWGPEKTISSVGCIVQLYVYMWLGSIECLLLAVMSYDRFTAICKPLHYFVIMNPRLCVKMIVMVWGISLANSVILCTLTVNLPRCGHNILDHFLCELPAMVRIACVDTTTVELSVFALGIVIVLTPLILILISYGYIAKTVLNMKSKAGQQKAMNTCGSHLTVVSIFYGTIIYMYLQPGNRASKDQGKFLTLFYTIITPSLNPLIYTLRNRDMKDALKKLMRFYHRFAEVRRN
Excerpt: as §1, §2, §3
(§6) Neurons that were activated by DMTS were further isolated for full transcriptome analysis to identify the responsive odorant receptor. […] Amplified cDNA was then used to generate an Illumina cDNA library for Next-Generation-Sequencing and the generation of 100 base pair single read sequences. […]

Olfr641 [5] = target: Olfr641 (Mus musculus, UniProt Q8VGX6); assay: 3-methyl-2-hexenoic acid concentration-dependent activation of Olfr641: OR-dependent cAMP accumulation in a cell-based assay (functional dose-response); details: agonist, mouse Olfr641 (SEQ ID NO: 34), N-terminal FLAG/Rho/Lucy tags, HEK 293T cells, Gαolf, FIG. 8
Chain of Olfr641 (Mus musculus, UniProt Q8VGX6) (Q8VGX6 1-312): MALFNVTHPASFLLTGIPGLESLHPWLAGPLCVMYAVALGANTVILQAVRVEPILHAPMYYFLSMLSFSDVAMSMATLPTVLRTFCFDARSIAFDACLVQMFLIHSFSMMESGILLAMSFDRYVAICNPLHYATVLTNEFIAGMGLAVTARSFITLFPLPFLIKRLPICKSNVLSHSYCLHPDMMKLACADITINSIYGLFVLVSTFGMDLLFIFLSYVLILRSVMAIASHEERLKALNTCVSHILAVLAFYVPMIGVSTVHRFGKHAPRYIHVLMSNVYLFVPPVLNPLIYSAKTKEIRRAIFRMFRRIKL
Excerpt: as §2, §3, §6

OR2W1 [6] = target: T1, OR2W1; assay: Concentration-dependent activation of OR2W1: OR-dependent cAMP accumulation in a cell-based assay (functional dose-response); parameters: expressed in transfected cells; host or cells: HEK293T; details: agonist 3-methyl-2-hexenoic acid, human OR2W1 (SEQ ID NO: 2), HEK293T cells expressing Golf, FIG. 8
Excerpt: as §1, §2, §3, §4

Olfr1126 [7] = assay: Cell-based OR activation assay (cAMP accumulation); parameters: species or system mouse; details: FIG. 9; OR-dependent accumulation of cAMP
Excerpt: (§7) The detection method pertains to OR-dependent accumulation of cAMP in said cells, as a result of OR activation by 3-hydroxy-3-methyl-hexanoic acid.
as §5, with “receptors. In a further embodiment, an RTP1 gene can also be expressed in the cell lines whether through activation of the endogenous RTP1 gene or through transformation.” for “receptors.”

Olfr1126 [8] = target: Olfr1126 (Mus musculus, UniProt Q7TR49); assay: 3-hydroxy-3-methyl-hexanoic acid concentration-dependent activation of Olfr1126: OR-dependent cAMP accumulation in a cell-based assay (functional dose-response); details: agonist, mouse Olfr1126 (SEQ ID NO: 46), N-terminal FLAG/Rho/Lucy tags, HEK 293T cells, Gαolf, FIG. 9
Chain of Olfr1126 (Mus musculus, UniProt Q7TR49) (Q7TR49 1-314): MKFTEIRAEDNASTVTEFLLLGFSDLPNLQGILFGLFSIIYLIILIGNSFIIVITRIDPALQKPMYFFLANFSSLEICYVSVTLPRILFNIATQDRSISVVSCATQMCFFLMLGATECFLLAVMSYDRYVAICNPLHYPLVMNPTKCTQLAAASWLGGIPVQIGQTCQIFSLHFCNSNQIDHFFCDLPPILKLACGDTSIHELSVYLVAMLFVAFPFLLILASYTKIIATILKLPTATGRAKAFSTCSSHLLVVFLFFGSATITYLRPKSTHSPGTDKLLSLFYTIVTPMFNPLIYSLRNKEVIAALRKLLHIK
Excerpt: as §7, §3, §6

[9] = test system: T4, OR11A1 or OR2M3 olfactory receptor; assay: Geonol olfactory receptor antagonist cell-based inhibitory dose-response assay; parameters: species or system human; details: Table 2; geonol induced receptor activity, geonol at EC50
T4 construct: fused on or other part: Possibly N-terminal FLAG, Rho and/or Lucy tags

[10] = test system: OR2W1 or OR1A1 olfactory receptor; assay: 1-octen-3-ol olfactory receptor antagonist cell-based inhibitory dose-response assay; details: Table 3
Excerpt: Each cell line was screened with a volatile compound library for their inhibitory properties and potential 1-octen-3-ol smell inhibition.
Single concentration monitoring of the 1-octen-3-ol induced cell activity in the presence or absence of a test compound allowed for the identification of compounds with a putative suppression or inhibitory effect.

Olfr93 = assay: Cell-based OR activation assay (cAMP accumulation); parameters: species or system mouse; details: FIG. 6; OR-dependent accumulation of cAMP
Olfr398 = assay: Cell-based OR activation assay (cAMP accumulation); parameters: species or system mouse; details: FIG. 6; OR-dependent accumulation of cAMP
Olfr1364 = assay: Cell-based OR activation assay (cAMP accumulation); parameters: species or system mouse; details: FIG. 6; OR-dependent accumulation of cAMP
Olfr120 = assay: Cell-based OR activation assay (cAMP accumulation); parameters: species or system mouse; details: FIG. 6; OR-dependent accumulation of cAMP

Chain of OR11A1 (Q9GZK7 whole entry): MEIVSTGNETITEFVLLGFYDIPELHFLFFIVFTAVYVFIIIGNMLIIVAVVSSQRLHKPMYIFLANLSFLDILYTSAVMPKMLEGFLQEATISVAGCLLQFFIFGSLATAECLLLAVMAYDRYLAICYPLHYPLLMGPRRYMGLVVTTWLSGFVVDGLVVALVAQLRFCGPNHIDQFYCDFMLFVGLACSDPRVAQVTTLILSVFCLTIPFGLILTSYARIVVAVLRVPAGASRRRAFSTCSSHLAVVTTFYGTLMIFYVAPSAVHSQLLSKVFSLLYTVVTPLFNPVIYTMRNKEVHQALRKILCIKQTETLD

## CC1CCCC2(C)CCCCC12O [geonol, (4S,4aS,8aR)-4,8a-Dimethyl-1,2,3,4,5,6,7,-octahydronaphthalen-4a-ol]
OR11A1
  activation of OR11A1: concentration-dependent and specific activation
Olfr1487
  activation of Olfr1487: concentration-dependent and specific activation
Olfr339
  activation of Olfr339: concentration-dependent and specific activation
Olfr1322
  activation of Olfr1322: concentration-dependent and specific activation
Olfr96
  activation of Olfr96: concentration-dependent and specific activation

## CCCC(C)(S)CCO (stereo not drawn) [transpirol, 3-methyl-3-sulfanylhexanol]
OR2W1 [1]
  activation of OR2W1: concentration-dependent and specific activation
Olfr263 [2]
  activation of Olfr263: concentration-dependent and specific activation
Olfr46
  activation of Olfr46: concentration-dependent and specific activation

## OCCc1ccccc1 [phenylethylol]
Human sensory panel
  % Remaining in human sensory tests: 58%

## CC(=O)OCCc1ccccc1 [phenyl ethyl acetate]
Human sensory panel
  % Remaining in human sensory tests: 47* %

## CCCC(C)=CC(=O)O [3-methyl-2-hexenoic acid]
OR2W1 [1]
  activation of OR2W1: concentration-dependent and specific activation
OR51I2
  EC50: 13.9 µM
OR5112
  activation of OR5112: concentration-dependent and specific activation
Olfr641 [3]
  activation of Olfr641: concentration-dependent and specific activation
Olfr263 [4]
  EC50: 183 µM
Olfr641 [5]
  EC50: 1750 nM
Olfr263 [2]
  activation of Olfr263: concentration-dependent and specific activation
OR2W1 [6]
  EC50: 214 µM

## CCCC(C)(O)CC(=O)O (stereo not drawn) [3-hydroxy-3-methyl-hexanoic acid]
Olfr1126 [7]
  activation of Olfr1126: concentration-dependent and specific activation
Olfr1126 [8]
  EC50: 40.3 µM

## isobutylquinoline
[9]
  % Inhibition: 45%
[10]; 1-octen-3-ol at single activating concentration (EC50), receptor (OR2W1 or OR1A1) not stated per compound
  IC50: > 600 µM
[10]; normalized to baseline agonist activity, 1-octen-3-ol at EC50
  % Inhibition: 30.14%
Human sensory panel
  % Remaining in human sensory tests: 52* %

## CCCCCC/C=C/C=O [nonylenic aldehyde]
[9]
  % Inhibition: 30%

## isopropyl quinoline
Human sensory panel
  % Remaining in human sensory tests: 110%

## C=CC(O)CCCCC (stereo not drawn) [1-octen-3-ol]
Olfr93
  activation of Olfr93: concentration-dependent and specific activation
Olfr398
  activation of Olfr398: concentration-dependent and specific activation
Olfr1364
  activation of Olfr1364: concentration-dependent and specific activation
Olfr120
  activation of Olfr120: concentration-dependent and specific activation
